# Biological target: T1, Akt3 (Homo sapiens, UniProt Q9Y243)
# T1 construct: endogenous in cells; host or cells: human CD4+/CD45RA+/CD25- naive T cells under iTreg induction conditions
# Assay: Akt3 inhibition activity of selected compounds
# Assay type: cell-based
# T1 sequence (Q9Y243 whole entry): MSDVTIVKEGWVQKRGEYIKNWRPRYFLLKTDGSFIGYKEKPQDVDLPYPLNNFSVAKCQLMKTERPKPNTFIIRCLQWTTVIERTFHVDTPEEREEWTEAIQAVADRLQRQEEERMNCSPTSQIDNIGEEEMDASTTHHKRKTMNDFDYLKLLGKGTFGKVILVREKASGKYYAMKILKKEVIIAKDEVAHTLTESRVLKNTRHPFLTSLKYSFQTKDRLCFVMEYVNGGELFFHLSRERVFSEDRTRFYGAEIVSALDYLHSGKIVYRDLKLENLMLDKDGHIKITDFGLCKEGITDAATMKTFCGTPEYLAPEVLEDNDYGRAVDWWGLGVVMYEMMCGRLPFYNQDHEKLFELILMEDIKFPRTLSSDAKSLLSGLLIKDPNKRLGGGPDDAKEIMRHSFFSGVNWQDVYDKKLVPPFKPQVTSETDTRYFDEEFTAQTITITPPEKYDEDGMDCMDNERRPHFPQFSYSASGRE
row,IC50 [nM],SMILES
1,< 2000,"O=C(Nc1ccc(Nc2ccncc2)cc1)c1cccc(Nc2ccnc3ccc(F)cc23)c1 [Compound 3, 3-((6-fluoroquinolin-4-yl)amino)-N-(4-(pyridin-4-ylamino)phenyl)benzamide]"
2,< 2000,"Cc1cccc2nccc(Nc3cccc(C(=O)Nc4ccc(Nc5ccncc5)cc4)c3)c12 [Compound 18, 3-((5-methylquinolin-4-yl)amino)-N-(4-(pyridin-4-ylamino)phenyl)benzamide]"
3,< 5000,"Nc1cc(Nc2ccc(C(=O)Nc3cccc(Nc4ccncc4)c3)cc2)ccn1 [Compound 19, 4-(2-aminopyridin-4-ylamino)-N-(3-(pyridin-4-ylamino)phenyl)benzamide]"
4,< 5000,"Cc1cc(Nc2ccc(C(=O)Nc3cccc(Nc4ccncc4)c3)cc2)cc(N)n1 [Compound 20, 4-(2-amino-6-methylpyridin-4-ylamino)-N-(3-(pyridin-4-ylamino)phenyl)benzamide]"
5,< 2000,"Cc1c(Nc2ccc(C(=O)Nc3cccc(Nc4ccncc4)c3)cc2)ccnc1N [Compound 21, 4-(2-amino-3-methylpyridin-4-ylamino)-N-(3-(pyridin-4-ylamino)phenyl)benzamide]"

# Biological target: T1, Akt3
# Assay: Akt3 activation activity of selected compounds
# Assay type: cell-based
row,EC50 [µM],SMILES
1,< 5,"N#Cc1ccc2nccc(Nc3cccc(C(=O)Nc4ccc(Nc5ccncc5)cc4)c3)c2c1 [Compound 2, 3-((6-cyanoquinolin-4-yl)amino)-N-(4-(pyridin-4-ylamino)phenyl)benzamide]"

# Reference: patent US20240228457A1, “AKT3 MODULATORS” (Georgiamune Inc., priority 2020, published 2024)
